# Results from ChEMBL document CHEMBL1687875, “Flavonoids from eight tropical plant species that inhibit the multidrug resistance transporter ABCG2” (J Nat Prod, 2011).
# pIC50: −log10 of the molar value.
# Target: T1, Broad substrate specificity ATP-binding cassette transporter ABCG2 (Homo sapiens, UniProt Q9UNQ0)
# T1 sequence (Q9UNQ0 whole entry): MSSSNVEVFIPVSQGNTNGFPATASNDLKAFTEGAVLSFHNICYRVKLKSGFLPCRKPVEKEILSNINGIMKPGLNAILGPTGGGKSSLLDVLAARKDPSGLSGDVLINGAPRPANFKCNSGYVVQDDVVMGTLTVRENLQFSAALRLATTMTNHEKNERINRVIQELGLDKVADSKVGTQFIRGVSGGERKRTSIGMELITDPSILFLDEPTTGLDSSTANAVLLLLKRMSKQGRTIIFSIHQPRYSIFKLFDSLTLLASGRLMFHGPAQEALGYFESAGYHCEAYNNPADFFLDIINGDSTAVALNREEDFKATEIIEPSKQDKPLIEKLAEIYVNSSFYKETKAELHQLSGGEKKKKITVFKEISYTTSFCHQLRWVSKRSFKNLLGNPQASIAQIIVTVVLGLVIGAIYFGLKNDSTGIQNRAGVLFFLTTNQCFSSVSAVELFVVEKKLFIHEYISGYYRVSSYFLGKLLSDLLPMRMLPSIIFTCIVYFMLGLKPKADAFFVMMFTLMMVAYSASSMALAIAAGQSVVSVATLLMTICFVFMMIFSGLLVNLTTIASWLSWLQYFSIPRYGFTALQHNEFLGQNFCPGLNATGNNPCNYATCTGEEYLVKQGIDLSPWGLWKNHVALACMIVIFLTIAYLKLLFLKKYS
# Experiment: Inhibition of ABCG2 expressed in human NCI-H460 cells assessed as increase in PhA accumulation after 2 to 20 hrs relative to fumitremorgin C
row,SMILES,pIC50
1,COc1cc(O)c2c(=O)c(OC)c(-c3ccc(O)c(OC)c3)oc2c1 [PACHYPODOL],4.76
2,O=c1cc(-c2ccc(O)c(O)c2)oc2cc(O)cc(O)c12 [LUTEOLIN],5.05
3,CC(C)=CCc1c(O)c(CC=C(C)C)c2c(c1O)C(=O)C[C@@H](c1cc(O)cc(O)c1)O2,5.39
4,COc1ccc([C@@H]2CC(=O)c3c(O)cc(O)c(CC=C(C)C)c3O2)cc1,4.65
5,COc1cc(O)c(CC=C(C)C)c(-c2oc3cc(O)cc(O)c3c(=O)c2OC)c1,5.08
6,CC(C)=CCC/C(C)=C/Cc1c(O)cc(O)c2c1O[C@H](c1cc(O)cc(O)c1)CC2=O,4.81
7,CC(C)=CCC/C(C)=C/Cc1c(O)cc2oc(-c3ccc(O)cc3)c(O)c(=O)c2c1O [MACARANGIN],5.24
8,COc1ccc2c3c([nH]c2c1)[C@H](C=C(C)C)N1C(=O)[C@@H]2CCCN2C(=O)[C@@H]1C3 [FUMITREMORGIN],6.10
9,C/C(=C/Cc1c(-c2cc(O)c(O)cc2O)oc2c3c(cc(O)c2c1=O)OC(C)(C)C=C3)CO,5.19
10,CC(C)=CCC/C(C)=C/Cc1c(O)cc(O)c2c1O[C@H](c1ccc(O)cc1)CC2=O [SOPHORAFLAVANONE A],4.91
11,COc1cc(O)c2c(=O)c(OC)c(-c3ccc(OC)c(O)c3)oc2c1 [AYANIN],5.24
12,CC(C)=CCc1c(O)cc(O)c2c1O[C@H](c1ccc(O)cc1)CC2=O,5.51
13,COc1ccc([C@@H]2CC(=O)c3c(O)cc(O)c(CC=C(C)C)c3O2)cc1O,5.18
